Reference: publication PMC9490236, “Accurate de novo design of membrane-traversing macrocycles” (Cell, 2022)
Read-outs that look alike come from different tables or passages of the source. Where a SMILES comes first, the peptide text is derived from it. [ ]: non-standard residue; d: D form. NMeF = CN[C@@H](Cc1ccccc1)C(=O)O; dNMeF = CN[C@H](Cc1ccccc1)C(=O)O; NMeL = CN[C@@H](CC(C)C)C(=O)O; dNMeL = CN[C@H](CC(C)C)C(=O)O; dNMeV = CN[C@@H](C(=O)O)C(C)C; dNMeA = CN[C@H](C)C(=O)O

What was measured:
[1] = Parallel artificial membrane permeability assay (PAMPA); settings: for PAMPA_R1 / PAMPA_R3: PAMPA Papp; for PAMPA_R1: replicate 1; for PAMPA_R3: replicate 3; for Papp: PAMPA
[2] = tested on: Caco-2 cells; assay: Caco-2 permeability assay (apical to basolateral); format: in vitro ADME, human; settings: Caco-2
How it was run: (§1)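 Caco-2 monolayers were grown on 0.4 μm Transwell inserts for 6 days. Peptides were applied apically at 50 μM with HBSS basolaterally and incubated 90 min at 37°C with shaking.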

[3] = Caco-2 permeability assay (apical to basolateral); format: in vitro ADME, human
How it was run: as §1

[4] = PAMPA
[5] = PAMPA, apparent permeability (Papp) in PAMPA
[6] = in vitro; settings: PAMPA, PAMPA_Papp_Avg
[7] = BQL = no significant peak detected for the peptide in the acceptor wells
[8] = BQL: No significant peak detected for the peptide in the acceptor wells
[9] = average of 3 replicates, BQL: No significant peak detected for the peptide in the acceptor wells

Row | SMILES | Papp [1] [×10⁻⁶ cm/s] | PAMPA_R1 [1, 8] | PAMPA_R3 [1, 8] | PAMPA_Papp_Avg [1, 9] | other results
1 | CC[C@@H](C)[C@H]1NC(=O)[C@@H]2CCCN2C(=O)[C@@H](Cc2ccccc2)N(C)C(=O)[C@@H](CC(C)C)N(C)C(=O)[C@@H](C(C)C)NC(=O)[C@@H](CC(C)C)N(C)C(=O)[C@H](Cc2ccccc2)N(C)C(=O)[C@H](C(C)C)NC(=O)[C@H]2CCCN2C1=O [Design D9.7, VAL *PHE *DLEU DVAL *DLEU *DPHE PRO DILE DPRO] (cyclo([NMeF][dNMeL][dV][dNMeL][dNMeF]P[dI][dP]V)) |  |  |  |  | PAMPA_R1 [1, 7]: BQL; PAMPA_R3 [1, 7]: BQL; PAMPA_Papp_Avg ([1]; average of replicates R1-R3, BQL = no significant peak detected for the peptide in the acceptor wells): BQL
2 | CC(C)C[C@@H]1NC(=O)[C@H](CC(C)C)N(C)C(=O)[C@H]2CCCN2C(=O)[C@H]2CCCN2C(=O)[C@H](CC(C)C)NC(=O)[C@@H](CC(C)C)N(C)C(=O)[C@@H](C)NC(=O)[C@@H](CC(C)C)N(C)C(=O)[C@H]2CCCN2C(=O)[C@@H](CC(C)C)NC(=O)[C@@H](C)N(C)C1=O [Design D11.15, LEU DPRO DPRO *LEU LEU *DALA DLEU DPRO *DLEU DALA *DLEU] (cyclo(L[dNMeA][dL][dP][dNMeL][dA][dNMeL]L[dP][dP][NMeL])) | 1.29 | 9.49E-07 | 1.56E-06 |  | 
3 | CC[C@@H](C)[C@H]1NC(=O)[C@H]2CCCN2C(=O)[C@H]([C@@H](C)CC)NC(=O)[C@@H]2CCCN2C(=O)[C@H]2CCCN2C(=O)[C@@H](CC(C)C)NC(=O)[C@H](CC(C)C)NC(=O)[C@H](C(C)C)NC(=O)[C@H](CC(C)C)NC(=O)[C@H](C)NC(=O)[C@H](C)NC(=O)[C@@H]2CCCN2C1=O [Design D12.1, PRO ILE DPRO DILE PRO ALA ALA LEU VAL LEU DLEU DPRO] (cyclo(I[dP][dI]PAALVL[dL][dP]P)) |  | BQL | BQL | BQL | 
4 | CC[C@@H](C)[C@H]1NC(=O)[C@@H](CC(C)C)N(C)C(=O)[C@@H]2CCCN2C(=O)[C@H](C(C)C)NC(=O)[C@@H](C)N(C)C(=O)[C@@H]2CCCN2C(=O)[C@@H](CC(C)C)NC(=O)[C@@H](C(C)C)N(C)C(=O)[C@@H]2CCCN2C(=O)[C@H](C)NC(=O)[C@H](C(C)C)NC(=O)[C@@H]2CCCN2C1=O [Design D12.5, VAL PRO *DLEU DILE PRO VAL ALA PRO *DVAL DLEU PRO *DALA] (cyclo(AP[dNMeV][dL]P[dNMeA]VP[dNMeL][dI]PV)) | 0.1 | 1.24E-07 | 1.52E-07 |  | 
5 | CC[C@H](C)[C@@H]1NC(=O)[C@H](Cc2ccccc2)N(C)C(=O)[C@H]2CCCN2C(=O)[C@H]([C@@H](C)CC)NC(=O)[C@@H](C)N(C)C(=O)[C@@H](C)NC(=O)[C@@H]2CCCN2C(=O)[C@H]2CCCN2C(=O)[C@H](CC(C)C)NC(=O)[C@@H](CC(C)C)NC(=O)[C@H](CC(C)C)NC(=O)[C@H]2CCCN2C1=O [Design D12.6, DPRO *PHE ILE DPRO LEU DLEU LEU DPRO PRO DALA *DALA ILE] (cyclo([dA][dNMeA]I[dP][NMeF]I[dP]L[dL]L[dP]P)) |  |  |  |  | Caco_R1 [2]: 2.06; Caco_R3 [2]: 4.18; Papp A→B ([3]; Caco-2, Caco_Papp_Average): 2.84 ×10⁻⁶ cm/s; Papp at 90 min, 50 µM ([3]; human, Caco-2): 2.84 ×10⁻⁶ cm/s; PAMPA_R1 [4]: 2.43E-06; PAMPA_R3 [4]: 1.22E-06; Papp [5]: 1.47 ×10⁻⁶ cm/s; Papp [6]: 1.47 ×10⁻⁶ cm/s
6 | CC[C@@H](C)[C@H]1NC(=O)[C@@H](C)N(C)C(=O)[C@H](CC(C)C)NC(=O)[C@@H](CC(C)C)NC(=O)[C@H]2CCCN2C(=O)[C@H](CC(C)C)N(C)C(=O)[C@@H](C(C)C)NC(=O)[C@@H](CC(C)C)N(C)C(=O)[C@H](C(C)C)NC(=O)[C@@H](C(C)C)NC(=O)[C@@H]2CCCN2C(=O)[C@H]2CCCN2C1=O [Design D12.10, *LEU DPRO DLEU LEU *DALA DILE DPRO PRO DVAL VAL *DLEU DVAL] (cyclo([dV]V[dNMeL][dV][NMeL][dP][dL]L[dNMeA][dI][dP]P)) |  | BQL | BQL | BQL | 
